The test system of one data set is Hepa1-6 HCC cell line. Kind of data set: Peptide-Dylight488 streptavidin cell binding assay by flow cytometry. In kind it is cell-based, murine. The conditions noted are these: peptide-Dylight488 streptavidin complexes. For orientation: A flow cytometer gives signals particle by particle.
Data set [1] concerns normal human hepatocytes in primary culture. The data set is described as above. The note with it: peptide-Dylight488 streptavidin complexes. It is filed as cell-based.
Data set [2] deals with hepatic stellar-like LX2 cells. The data set is described as above. It is filed as cell-based, human. The conditions noted are these: peptide-Dylight488 streptavidin complexes.
For another data set, the system named is RLEC-like S3 cells. The description is as above. The conditions noted are these: peptide-Dylight488 streptavidin complexes, established line. It is filed as cell-based, rat.
The subject of the next data set is Huh7 HCC cell line. The description is as above. It is filed as cell-based, human. The conditions noted are these: peptide-Dylight488 streptavidin complexes.
The next data set concerns Providencia stuartii. Description: Antibiotic resistance characterization of clinical isolate. It is filed as cell-based. The conditions noted are these: University Hospital Pontchaillou.
Data set [3] deals with bipotent progenitor HepaRG cells 3 days after plating. Description: Peptide-Dylight488 streptavidin cell binding assay by flow cytometry. It is filed as cell-based, human. The conditions noted are these: P11^Chol-Dylight488 streptavidin complexes.
The next data set has as its system HepaRG-SP cells. Described as above. In kind it is cell-based, human. The conditions noted are these: P11^Chol-Dylight488 streptavidin complexes.
Data set [4] is described as follows: Solubility in aqueous solution. In kind it is physicochemical. The conditions noted are these: stock solutions prepared in PBS at 1mM.
The test system of the next data set is HEK293T cells. Description: Peptide-Dylight488 streptavidin cell binding assay by flow cytometry. The note with it: peptide-Dylight488 streptavidin complexes. It is filed as cell-based, human.
The subject of another data set is HepG2 cells. The data set is described as above. In kind it is cell-based, human. The note with it: peptide-Dylight488 streptavidin complexes.

For the compound GTLNNIPTY-YWGKGY [Provid-Stu], the binding to cells entry in the data set with Hepa1-6 HCC cell line was “no binding”; in data set [1], “no binding”; in [2] it was “no binding”; in the data set on RLEC-like S3 cells, “bound”; in the data set with Huh7 HCC cell line, “no binding”.
Consider `CC1(C)S[C@@H]2[C@H](NC(=O)[C@H](N)c3ccccc3)C(=O)N2[C@H]1C(=O)O` [ampicillin], for which, in the data set with Providencia stuartii, the “antibiotic resistance/sensitivity of the strain” value was “resistant”.
For `O=C(N[C@H](CO)[C@H](O)c1ccc([N+](=O)[O-])cc1)C(Cl)Cl` [chloramphenicol], the “antibiotic resistance/sensitivity of the strain” value in the data set with Providencia stuartii is “sensitive”.
Turning to AFLNSNGLPTYSPKIS [Hel-Pyl], the binding to cells result was “no binding” with Hepa1-6 HCC cell line; “no binding” in data set [1]; “no binding” in [2]; “bound” with RLEC-like S3 cells; “no binding” in the data set with Huh7 HCC cell line.
Regarding amoxicillin + clavulanic acid, in the data set on Providencia stuartii, the “antibiotic resistance/sensitivity of the strain” value is “resistant”.
TFLNSVPTYSYWGGGS [P11^Chol]: the binding to cells entry is listed as “no binding” in the data set on Hepa1-6 HCC cell line; “no binding” in [1]; “no binding” in data set [2]; “bound” in the data set on RLEC-like S3 cells; “no binding” with Huh7 HCC cell line. The “increase in fluorescence intensity, HepaRG D3 versus HepaRG-SP cells” value in data set [3] is given as 4 fold. For the same compound, the figures for the “percentage of positive cells” value (in [3] (HepaRG D3); with HepaRG-SP cells) were roughly 18% and “less than 1%”, respectively. Also, the “solubility in aqueous solution” value in data set [4] was “high solubility”.
Turning to `CC[C@H]1OC(=O)[C@H](C)[C@@H](O[C@H]2C[C@@](C)(OC)[C@@H](O)[C@H](C)O2)[C@H](C)[C@@H](O[C@@H]2O[C@H](C)C[C@H](N(C)C)[C@H]2O)[C@](C)(O)C[C@@H](C)C(=O)[C@H](C)[C@@H](O)[C@]1(C)O` [erythromycin], in the data set with Providencia stuartii, the “antibiotic resistance/sensitivity of the strain” value was “resistant”.
Turning to EYLNSILSYSPSYYWI [E-select], the binding to cells result in the data set with HEK293T cells and in the data set on HepG2 cells was “significant binding” in each case.
As to gentamycin, the “antibiotic resistance/sensitivity of the strain” value with Providencia stuartii was “sensitive”.
For `NC[C@H]1O[C@H](O[C@H]2[C@H](O)[C@@H](O[C@H]3O[C@H](CO)[C@@H](O)[C@H](N)[C@H]3O)[C@H](N)C[C@@H]2N)[C@H](O)[C@@H](O)[C@@H]1O` [kanamycin], in the data set with Providencia stuartii, the “antibiotic resistance/sensitivity of the strain” value was “sensitive”.

The record behind these values is doi:10.1101/2025.11.03.686257v1 (bioRxiv, 2025).
